Results on 18 compounds are retold here after patent US20230020329A1, “Annelated 9-hydroxy-1,8-dioxo-1,3,4,8-tetrahydro-2H-pyrido[1,2-a]pyrazine-7-carboxamides as HIV integrase inhibitors, methods of preparation and application thereof” (priority 2019, published 2023).

Molecules are shown by their SMILES. Bounds are passed on as bounds.

The subject of this assay is HIV-1 (IIIB strain). In words: Anti-HIV cytoprotection assay (XTT), HIV-1 IIIB in CEM-SS cells. The class given is cell-based. The conditions noted are these: Human immunodeficiency virus 1, IIIB, CEM-SS, CEM-SS cell line; read-out: Inhibitory activity (EC50) against HIV-1 (IIIB strain). From the text:
a) Inhibitory Activity of the Lymphocytropic Virus Strain HIV-1 (IIIB) in the CEM-SS Cell Line.
The evaluation was done by ImQuest BioSciences, Inc. (Frederick, Md., USA). CEM-SS cells [Foley G. E. et al. Continuous Culture of Human Lymphoblasts from Peripheral Blood of a Child with Acute Leukemia. Cancer 1965, 18, 522-529] obtained through the NIH AIDS Research and Reference Reagent Program (Manassas, Va., USA) were passaged in T-75 flasks prior to use cell culture medium consisting of RPMI1640 medium (Lonza; Walkersville, Md., USA) supplemented with 10% heat inactivated fetal bovine serum (Gibco; Grand Island, N.Y.), […] L-glutamine (Lonza), […] penicillin (Lonza) and […] streptomycin (Lonza) for antiviral analysis. The CEM-SS cells were kept in RPMI 140 medium supplemented with 10% heat inactivated bovine fetal serum, 2 mM glutamine, 100 U/ml penicillin, and 100 μg/ml streptomycin.
A lymphocytropic HIV-1 IIIB strain [Popovic, M. et al. Detection, isolation, and continuous production of cytopathic retroviruses (HTLV-III) from patients with AIDS and pre-AIDS. Science. 1984, 224 (4648), 497-500] was chosen for a virus to be analyzed. The virus was obtained through the NIH AIDS Research and Reference Reagents Program and grown in CEM-SS cells to produce a stock virus pool. A pre-titrated aliquot of the virus was removed from the freezer (−80° C.) and allowed to slowly thaw to room temperature in a biological safety cabinet. The virus was diluted in a tissue culture medium so that the amount of virus added in 50 μl per well was sufficient to kill 85 to 95% of the cells 6 days after infection. HIV-1 IIIB was grown and titrated in CEM-SS cells. The inhibitory effect of […] was evaluated in CEM-SS cells as described earlier [Nara, P. L. at al. Simple, rapid, quantitative, syncytium-forming microassay for the detection of human immunodeficiency virus neutralizing antibody. AIDS Res. Hum. Retroviruses 1987, 3, 283-302.] in microtiter plate anti-HIV assays to quantitatively assess the ability of a compound to inhibit HIV-induced cell death. Quantification was carried out using 2,3-bis-(2-methoxy-4-nitro-5-[…])-(2H)-tetrazolium-5-carboxanilide (XTT) tetrazolium, which is metabolized to a stained formazan product through viable […] The compounds given in Table 1 were dissolved at 10 μM in DMSO and stored at −20° C.
Test materials were evaluated using antiviral assays in triplicate in concentrations of 30 and 10 nM. The compounds shown in table 1 were dissolved at 10 μM in DMSO and stored at −20° C. […] Sixty nanomolar concentrations of each compound (2 times that of the test concentration in the well) were prepared by diluting 10 μM DMSO stock 1:100 in cell culture medium (10 μl of compound added to 990 μl of the medium) followed by 1:10 dilution (10 μl of the compound was added to 90 μl of the medium), then 6 μl was added to 994 μl of the medium; […] μl was added to a 96-well microtiter plate in triplicate to ensure efficacy and one colorimetric well. Twenty nanomolar concentrations of each compound (twice as much as the test concentration in the well) were prepared by diluting 10 μM DMSO with the original 1:100 in cell culture medium (10 μl of the compound added to 990 μl of the medium) followed by diluting […] (10 μl of the compound was added to 900 μl of the medium), then 20 μl was added to 980 μl of the medium; 100 μl was added to a 96-well microtiter plate in triplicate to ensure efficacy and one colorimetric well.
Azidothymidine (AZT) was purchased from Sigma Aldrich (USA) and evaluated as a positive control compound in an antiviral assay using a six-concentration reaction curve on each assay plate.
Test compounds were initially evaluated for HIV-1 IIIB strain in CEM-SS cells at test concentrations of 30 and 10 nM. […]
A general note: Tetrazolium dyes change colour on reduction, which living cells bring about.
For `C[C@H]1CO[C@@H]2Cn3cc(C(=O)NCc4nc5ccc(Cl)cc5o4)c(=O)c(O)c3C(=O)N12` [Compound 1.1.39, (3S,11aR)-6-hydroxy-3-methyl-N-[(6-chloro-1,3-benzoxazol-2-yl)methyl]-5,7-dioxo-2,3,5,7,11,11a-hexahydro[1,3]oxazolo[3,2-a]pyrido[1,2-d]pyrazine-8-carboxamide], the EC50 (commonly the concentration that produces a half-maximal response) was 2 to 10 nM.
As for `C[C@H]1CO[C@@H]2Cn3cc(C(=O)NCc4nc5cc(Cl)ccc5o4)c(=O)c(O)c3C(=O)N12` [Compound 1.1.38, (3S,11aR)-6-hydroxy-3-methyl-N-[(5-chloro-1,3-benzoxazol-2-yl)methyl]-5,7-dioxo-2,3,5,7,11,11a-hexahydro[1,3]oxazolo[3,2-a]pyrido[1,2-d]pyrazine-8-carboxamide], the figure is over 30 nM; as for `C[C@H]1CO[C@@H]2Cn3cc(C(=O)NCc4ccc(Cl)nc4)c(=O)c(O)c3C(=O)N12` [Compound 1.1.18, (3S,11aR)-6-hydroxy-N-[(6-chloropyridin-3-yl)methyl]-3-methyl-5,7-dioxo-2,3,5,7,11,11a-hexahydro[1,3]oxazolo[3,2-a]pyrido[1,2-d]pyrazine-8-carboxamide], 10 to 30 nM; as for `Cc1nnsc1CNC(=O)c1cn2c(c(O)c1=O)C(=O)N1[C@@H](C)CO[C@@H]1C2` [Compound 1.1.11, (3S,11aR)-6-hydroxy-3-methyl-N-[(4-methyl-1,2,3-thiadiazol-5-yl)methyl]-5,7-dioxo-2,3,5,7,11,11a-hexahydro[1,3]oxazolo[3,2-a]pyrido[1,2-d]pyrazine-8-carboxamide], over 30 nM.
In the case of `C[C@H]1CO[C@@H]2Cn3cc(C(=O)NCc4ccc5ccccc5n4)c(=O)c(O)c3C(=O)N12` [Compound 1.1.49, (3S,11aR)-6-hydroxy-3-methyl-N-(quinolin-2-ylmethyl)-5,7-dioxo-2,3,5,7,11,11a-hexahydro[1,3]oxazolo[3,2-a]pyrido[1,2-d]pyrazine-8-carboxamide], the 50% effective concentration (EC50) was 2 to 10 nM.
For `C[C@H]1CO[C@@H]2Cn3cc(C(=O)NCc4cccc5ncccc45)c(=O)c(O)c3C(=O)N12` [Compound 1.1.52, (3S,11aR)-6-hydroxy-3-methyl-N-(quinolin-5-ylmethyl)-5,7-dioxo-2,3,5,7,11,11a-hexahydro[1,3]oxazolo[3,2-a]pyrido[1,2-d]pyrazine-8-carboxamide], the 50% effective concentration (EC50) was about 10 nM.
As to `C[C@H]1CO[C@@H]2Cn3cc(C(=O)NCc4nccs4)c(=O)c(O)c3C(=O)N12` [Compound 1.1.8, (3S,11aR)-6-hydroxy-3-methyl-N-(1,3-thiazol-2-ylmethyl)-5,7-dioxo-2,3,5,7,11,11a-hexahydro[1,3]oxazolo[3,2-a]pyrido[1,2-d]pyrazine-8-carboxamide], the EC50 was 2 to 10 nM.
As for `C[C@H]1CO[C@@H]2Cn3cc(C(=O)NCc4cnccn4)c(=O)c(O)c3C(=O)N12` [Compound 1.1.27, (3S,11aR)-6-hydroxy-3-methyl-N-(pyrazin-2-ylmethyl)-5,7-dioxo-2,3,5,7,11,11a-hexahydro[1,3]oxazolo[3,2-a]pyrido[1,2-d]pyrazine-8-carboxamide], the figure is over 30 nM; as for `C[C@H]1CO[C@@H]2Cn3cc(C(=O)NCc4nc5cc(F)ccc5[nH]4)c(=O)c(O)c3C(=O)N12` [Compound 1.1.41, (3S,11aR)-6-hydroxy-3-methyl-N-[(5-ϕTopo-1H-benzimidazol-2-yl)methyl]-5,7-dioxo-2,3,5,7,11,11a-hexahydro[1,3]oxazolo[3,2-a]pyrido[1,2-d]pyrazine-8-carboxamide], 10 to 30 nM; as for `C[C@H]1CO[C@@H]2Cn3cc(C(=O)NCc4nc5ccc(Cl)cc5n4C)c(=O)c(O)c3C(=O)N12` [Compound 1.1.43, (3S,11aR)-6-hydroxy-3-methyl-N-[(1-methyl-6-chlorobenzimidazol-2-yl)methyl]-5,7-dioxo-2,3,5,7,11,11a-hexahydro[1,3]oxazolo[3,2-a]pyrido[1,2-d]pyrazine-8-carboxamide], over 30 nM.
Regarding `O=C(NCc1ccc(F)nc1F)c1cn2c(c(O)c1=O)C(=O)N1[C@H]3CC[C@H](C3)O[C@@H]1C2` [Compound 1.3.1, (2R,5S,13aR)-8-hydroxy-N-[(2,6-difluoropyridin-3-yl)methyl]-7,9-dioxo-2,3,4,5,7,9,13,13a-octahydro-2,5-methanopyrido[1′,2′:4,5]pyrazino[2,1-b][1,3]oxazepine-10-carboxamide], the EC50 fell in the range of 2 to 10 nM.
As for `C[C@@H]1CO[C@@]23CCC[C@@H]2n2cc(C(=O)NCc4ccc(F)nc4F)c(=O)c(O)c2C(=O)N13` [Compound 2.1.1, (3aS,6R,13aS)-9-hydroxy-N-[(2,6-difluoropyridin-3-yl)methyl]-6-methyl-8,10-dioxo-1,2,3,5,6,8,10,13a-octahydrocyclopenta[b][1,3]oxazolo[3,2-a]pyrido[1,2-d]pyrazine-11-carboxamide], the figure is 2 to 10 nM; as for `CC(C)n1c(CNC(=O)c2cn3c(c(O)c2=O)C(=O)N2[C@@H](C)CO[C@@H]2C3)nc2ccc(Cl)cc21` [Compound 1.1.45, (3S,11aR)-6-hydroxy-3-methyl-N-[(6-chloro-1-isopropyl-1H-benzimidazol-2-yl)methyl]-5,7-dioxo-2,3,5,7,11,11a-hexahydro[1,3]oxazolo[3,2-a]pyrido[1,2-d]pyrazine-8-carboxamide], over 30 nM.
As for `C[C@H]1CO[C@@H]2Cn3cc(C(=O)NCc4cc5ccccc5o4)c(=O)c(O)c3C(=O)N12` [Compound 1.1.32, (3S,11aR)-N-(1-benzofuran-2-ylmethyl)-6-hydroxy-3-methyl-5,7-dioxo-2,3,5,7,11,11a-hexahydro[1,3]oxazolo[3,2-a]pyrido[1,2-d]pyrazine-8-carboxamide], the figure is 2 to 10 nM.
The figure for `C[C@H]1CO[C@@H]2Cn3cc(C(=O)NCc4ccccn4)c(=O)c(O)c3C(=O)N12` [Compound 1.1.15, (3S,11aR)-6-hydroxy-3-methyl-N-(pyridyl-2-ylmethyl)-5,7-dioxo-2,3,5,7,11,11a-hexahydro[1,3]oxazolo[3,2-a]pyrido[1,2-d]pyrazine-8-carboxamide] is 10 to 30 nM.
Turning to `Cc1nccc(CNC(=O)c2cn3c(c(O)c2=O)C(=O)N2[C@@H](C)CO[C@@H]2C3)n1` [Compound 1.1.26, (3S,11aR)-6-hydroxy-3-methyl-N-[(2-methylpyrimidin-4-yl)methyl]-5,7-dioxo-2,3,5,7,11,11a-hexahydro[1,3]oxazolo[3,2-a]pyrido[1,2-d]pyrazine-8-carboxamide], the EC50 fell in the range of 10 to 30 nM.
As for `C[C@H]1CO[C@@H]2Cn3cc(C(=O)NCc4cnc5ccccn45)c(=O)c(O)c3C(=O)N12` [Compound 1.1.56, (3S,11aR)-6-hydroxy-N-(imidazo[1,2-a]pyridin-3-ylmethyl)-3-methyl-5,7-dioxo-2,3,5,7,11,11a-hexahydro[1,3]oxazolo[3,2-a]pyrido[1,2-d]pyrazine-8-carboxamide], the figure is over 30 nM; as for `C[C@H]1CO[C@@H]2Cn3cc(C(=O)NCc4nc5ccccc5n4C)c(=O)c(O)c3C(=O)N12` [Compound 1.1.42, (3S,11aR)-6-hydroxy-3-methyl-N-[(1-methyl-benzimidazol-2-yl)methyl]-5,7-dioxo-2,3,5,7,11,11a-hexahydro[1,3]oxazolo[3,2-a]pyrido[1,2-d]pyrazine-8-carboxamide], over 30 nM.
